According to patent publication US6872727B1, “Polycyclic pyrimidine -2,4(1H,3H)-diones with functionalized alkyl residues at the 1- and/or 3-position(s); methods for their synthesis and pharmaceutical preparation” (Privates Institut fur Biomedizinische Forschung und Beratung, priority 1999, dated 2005):
pIC50: −log10 of the molar value.

Key:
[1] = biological target: T1, human matrix metalloproteinase-9 (MMP-9; gelatinase B) (Homo sapiens, UniProt P14780); assay: Inhibition of human matrix metalloproteinase-9 (gelatinase B); type: biochemical; settings: trypsin-activated native MMP-9 from human buffy coat; for pIC50: read-out: MMP-9 (50% inhibition)
T1 construct: from tissue; host or cells: human buffy coat (blood leukocytes)
Method: Native MMP-9 was reproducibly obtained with reasonable yield and purity from human buffy coat. Buffy coat, to which was added an appropriate volume of 10% (v/v) Triton-X-100 to obtain a final concentration of 0,4% detergent, was shaken on ice for 30 min; then, one volume of twofold-concentrated binding buffer (40 mM Tris-HCl pH 7,5, 10 mM CaCl2, 1 M NaCl, 0,2% (v/v) Triton X-100 was added and the mixture shaken on ice for a further 30 min.
The mixture was then centrifuged for 15 min at 16,000 rpm (30,590×g) in a Kendro SS-34 rotor at 4° C. and the resulting supernatant filtered over glass wool. The filtrate was incubated batchwise with gelatin-agarose equilibrated in binding buffer for 1 h on ice with continuous shaking The MMP-9-bound gelatin-agarose was then loaded into a chromatographic tube and the column washed with at least ten bed volumes of binding buffer, or until no protein was detected by absorbance at 280 nm in the wash buffer. MMP-9 was eluted from the gelatin affinity column by application of two bed volumes of binding buffer containing 5% (v/v) dimethylsulfoxide (DMSO).
The eluate was applied to a gel filtration column of Sephadex G-75 both to exchange buffer and to eliminate small amounts of contaminating MMP-2. The G-75 column was prepared and eluted with Buffer I [20 mM Tris-HCl pH 7,5, 5 mM CaCl2, 100 mM NaCl, 0,1% (v/v) Triton X-100].
The eluted MMP-9 includes the three characterized forms of the enzyme: monomer, homodimer, and heterodimer (complex with lipokalin). The purity of MMP-9 was estimated to be ca. 90%, with the remaining contaminating protein being fibronectin and small amounts of TIMPS.
The latent MMP-9 was activated by a 30-60 min incubation at 37° C. with 1/100 vol trypsin (10 mg ml^−1). The trypsin was subsequently inactivated by addition of the serine proteinase inhibitor phenlymethylsulfonylfluoride (PMSF) or the more specific trypsin inhibitor TLCK.
The enzymatic cleavage of commercially available synthetic internally quenched fluorigenic peptide substrates such as 7-methylcoumarin-4-yl-acetyl-prolyleucyl-glycyl-leucyl-(dinitrophenyl-L-α,β-diaminopropionyl)-alanyl-arginylamide (Mca-Pro-Leu-Gly-Leu-Dap(Dnp)-Ala-Arg-NH2) at the scissile -Gly-Leu-peptide bond separates the fluorescent Mca group from the dinitrophenol quencher, resulting in a strong linear increase in fluorescence intensity that can be readily measured in a fluorimeter (λexitation328 nm, λemission 393 nm) over the first few minutes of the reaction. The specificity of the assay for matrix metalloproteinases is provided by the type I collagen-derived sequence -Pro-Leu-Gly-Leu- in the synthetic substrate, as well as by the incubation conditions. To test the efficacy of the synthetic collagenase/MMP inhibitors, the residual enzymatic activity remaining after an incubation of enzyme plus different amounts of inhibitor is measured at a fixed enzyme and substrate concentration. For each inhibitor, three test series at different fixed substrate concentrations were carried out. From the time-dependent increase in fluorescence intensity measured, the velocity (v) of the enzymatic activity can be calculated as increase in arbitrary fluorescence intensity units per minute. The inhibition constant Ki is calculated graphically by the method of Dixon (1953) by plotting the reciprocal of the reaction velocity 1/v on the ordinate, and the inhibitor concentration on the abscissa. The x-intercept of the linear plot is defined as minus K1 value.
1984 μl assay buffer (100 mM Tris-HCl pH 7,5, 100 mM NaCl, 10 mM CaCl2, 0,05% Brij 35) • 2 μl inhibitor dissolved in DMSO, or DMSO alone as a solvent control • 4 μl enzyme (MMP-2, MMP-9, or the catalytic domain of MMP-8) • 10 μl Mca-Pro-Leu-Gly-Leu-Dap(Dnp)-Ala-Arg-NH2 in DMSO Method • 1. Incubate buffer, enzyme, and inhibitor for 5 min at room temperature, with stirring. • 2. Start the reaction by adding 10 μl substrate in DMSO • 3. Record the increase in fluorescence intensity over 2 min. […]

[2] = biological target: Clostridium histolyticum collagenase (EC 3.4.24.3); assay: Inhibition of Clostridium histolyticum collagenase, spectrophotometric FALGPA assay; type: biochemical; settings: chromogenic substrate FALGPA; read-out: C. histolyticum (50% inhibition)
Text: The activity of Clostidium histolyticum collagenase may be readily determined by a simple spectrophotometric assay using the synthetic chromogenic peptide substrate N-(3-[2-furyl]acryloyi)-leucine-glycine-proline-alanine (FALGPA; Van Hart, H. E. and Steinbrink, D. R. 1981, Anal. Biochem. 113, 356). The degree of inhibition of the degradation of this chromogenic substrate by the addition of the various test substances described in Table 1 may be easily quantified. The enzyme and substrate are commercially available.

T1 sequence (P14780 107-707 limits assumed): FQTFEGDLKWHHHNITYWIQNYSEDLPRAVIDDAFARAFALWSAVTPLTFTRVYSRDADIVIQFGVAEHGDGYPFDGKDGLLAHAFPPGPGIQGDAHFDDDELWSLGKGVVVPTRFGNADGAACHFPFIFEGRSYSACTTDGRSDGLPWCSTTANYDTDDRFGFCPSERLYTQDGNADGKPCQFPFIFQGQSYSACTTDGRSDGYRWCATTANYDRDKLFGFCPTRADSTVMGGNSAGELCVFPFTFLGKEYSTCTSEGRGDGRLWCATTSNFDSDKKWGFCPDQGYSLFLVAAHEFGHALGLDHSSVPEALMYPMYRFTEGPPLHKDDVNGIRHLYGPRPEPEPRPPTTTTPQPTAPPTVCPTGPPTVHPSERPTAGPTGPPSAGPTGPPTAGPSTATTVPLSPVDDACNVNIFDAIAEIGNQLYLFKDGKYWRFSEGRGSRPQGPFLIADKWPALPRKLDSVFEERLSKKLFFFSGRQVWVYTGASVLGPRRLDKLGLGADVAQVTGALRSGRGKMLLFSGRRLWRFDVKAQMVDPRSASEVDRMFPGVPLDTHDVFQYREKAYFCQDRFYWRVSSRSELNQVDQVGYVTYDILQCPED

With `CC(S)CCn1c(=O)[nH]c(=O)c2ccccc21` (racemic) [Example 3, (R,S)-1-(3-mercaptobut-1-yl)-chinazolin-2,4(1H,3H)-dione] the “MMP-9 (50% inhibition)” value [1] was “negative” and the pIC50 [2] was 4.56.
Work on `CC(CCS)n1c(=O)[nH]c2ccccc2c1=O` (racemic) [Example 18, (R,S)-3-[3-(1-methyl)-mercaptopropyl]-chinazolin-2,4(1H,3H)-dione] yielded a pIC50 [1] of 5.00.
Work on `O=c1[nH]c(=O)n(CCCS)c2ccccc12` [Example 4, 1-(3-mercaptopropyl)-chinazolin-2,4(1H,3H)-dione] yielded a pIC50 [1] of 5.22 and a pIC50 [2] of 4.27.
`O=c1[nH]c(=O)n(CCS)c2ccccc12` [Example 5, 1-(2-mercaptoethyl)-chinazolin-2,4(1H,3H)-dione] showed a pIC50 [1] of 4.90 and a pIC50 [2] of 4.41.
For `Cn1c(=O)c2ccccc2n(CCCS)c1=O` [Example 7, 1-(3-mercaptoprop-1-yl)-3-methyl-chinazolin-2,4(1H,3H)-dione], the pIC50 [1] was 4.15 and the pIC50 [2] was 4.94.
Molecule `O=c1[nH]c2ccccc2c(=O)n1CCCCS` [Example 12, 3-(4-mercaptobut-1-yl)-chinazolin-2,4(1H,3H)-dione] has a pIC50 [1] of 4.70.
`Cn1c(=O)c2sccc2n(CCCS)c1=O` [Example 14, 1-(3-mercaptoprop-1-yl)-3-methyl-thieno(3,2-d)-pyrimidin-2,4(1H,3H)-dione] was tested, and the pIC50 [1] was 4.30.
For `Cn1c(=O)c2sccc2n(CCS)c1=O` [Example 17, 1-(2-mercaptoethyl)-3-methyl-thieno[3,2-d]-pyrimidine-2,4(1H,3H)-dione], the pIC50 [1] was 5.00.
